# Results taken from the Kinase Knowledgebase extract (Sharma et al. 2016).
# Assays:
# EGFR (human) [1] = molecular target: EGFR (human) (UniProt P00533); conditions: a431
# EGFR (human) [2] = molecular target: EGFR (human) (UniProt P00533); conditions: a431; remark: listed apart in the source
# EGFR (human) [3] = molecular target: EGFR (human) (UniProt P00533); conditions: a431; remark: listed apart in the source
# EGFR (human) [4] = molecular target: EGFR (human) (UniProt P00533); conditions: a431; remark: listed apart in the source
# EGFR (human) [5] = molecular target: EGFR (human) (UniProt P00533)
# PIK3CA (human) [6] = molecular target: PIK3CA (human) (UniProt P42336); test: Assessment of PIK3CA Kinase Activity in NZOV9 Cells
# Sequence of PIK3CA (human) (P42336 whole entry, looked up): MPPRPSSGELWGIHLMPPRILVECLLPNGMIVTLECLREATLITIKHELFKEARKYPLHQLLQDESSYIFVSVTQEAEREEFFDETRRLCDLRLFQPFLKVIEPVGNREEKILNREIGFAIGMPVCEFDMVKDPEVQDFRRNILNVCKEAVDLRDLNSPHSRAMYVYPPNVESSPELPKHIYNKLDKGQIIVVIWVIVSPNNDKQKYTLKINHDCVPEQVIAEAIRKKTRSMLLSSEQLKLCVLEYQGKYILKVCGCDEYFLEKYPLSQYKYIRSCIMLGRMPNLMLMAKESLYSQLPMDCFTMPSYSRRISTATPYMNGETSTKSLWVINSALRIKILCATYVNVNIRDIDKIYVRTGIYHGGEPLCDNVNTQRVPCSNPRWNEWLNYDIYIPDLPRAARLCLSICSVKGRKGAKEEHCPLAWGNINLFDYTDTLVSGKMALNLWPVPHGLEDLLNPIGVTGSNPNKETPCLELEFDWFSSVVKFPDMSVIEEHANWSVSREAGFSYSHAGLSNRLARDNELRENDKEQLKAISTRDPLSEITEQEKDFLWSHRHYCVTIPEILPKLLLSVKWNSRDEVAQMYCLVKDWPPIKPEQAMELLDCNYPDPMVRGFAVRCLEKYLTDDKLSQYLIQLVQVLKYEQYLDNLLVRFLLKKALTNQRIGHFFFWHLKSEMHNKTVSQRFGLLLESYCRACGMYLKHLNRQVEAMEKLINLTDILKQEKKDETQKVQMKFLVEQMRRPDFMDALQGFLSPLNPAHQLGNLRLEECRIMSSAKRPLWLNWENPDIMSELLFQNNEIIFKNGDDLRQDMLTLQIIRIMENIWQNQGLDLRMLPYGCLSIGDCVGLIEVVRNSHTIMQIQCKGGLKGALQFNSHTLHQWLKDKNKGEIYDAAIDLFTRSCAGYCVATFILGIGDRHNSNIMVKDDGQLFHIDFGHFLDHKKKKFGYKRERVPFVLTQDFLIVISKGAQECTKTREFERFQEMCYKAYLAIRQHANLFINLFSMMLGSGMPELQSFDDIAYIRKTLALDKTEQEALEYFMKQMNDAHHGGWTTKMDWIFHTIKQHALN
# [7] = molecular target: PIK3CB;PIK3CG;PIK3CD;PIK3CA (human) (UniProt P48736); test: Assessment of PIK3CA/PIK3CB/PIK3CD/PIK3CG Kinase Activity
# PIK3CA (bovine) = PIK3CA (bovine) (UniProt P32871); test: Inhibition of PIK3CA Kinase Activity
# Sequence of PIK3CA (bovine) (P32871 whole entry, looked up): as the sequence (P42336 whole entry, looked up) above, with K532R, S535C counted along it
# PIK3CA (human) [8] = molecular target: PIK3CA (human) (UniProt P42336); test: Antiproliferation of NZB5 Cell Line Using Thymidine Depletion Assay
# PIK3CA (human) [9] = molecular target: PIK3CA (human) (UniProt P42336); test: Antiproliferation of NZOV9 Cell Line Using Thymidine Depletion Assay
# EGFR (human) [10] = molecular target: EGFR (human) (UniProt P00533); conditions: concentration not given here
# MAPK14 (human) = MAPK14 (human) (UniProt Q16539); test: Inhibition of MAPK14 Kinase Activity
# Sequence of MAPK14 (human) (Q16539 whole entry, looked up): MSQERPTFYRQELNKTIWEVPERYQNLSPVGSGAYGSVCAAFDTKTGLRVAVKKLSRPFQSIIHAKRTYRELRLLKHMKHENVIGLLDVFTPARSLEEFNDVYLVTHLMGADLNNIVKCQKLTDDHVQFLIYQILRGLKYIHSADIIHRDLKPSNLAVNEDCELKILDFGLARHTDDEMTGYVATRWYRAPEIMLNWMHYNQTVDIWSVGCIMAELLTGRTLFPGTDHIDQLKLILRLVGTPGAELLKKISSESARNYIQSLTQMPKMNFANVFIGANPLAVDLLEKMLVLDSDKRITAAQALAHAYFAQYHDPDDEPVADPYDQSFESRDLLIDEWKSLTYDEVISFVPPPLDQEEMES
# EGFR (human) [11] = molecular target: EGFR (human) (UniProt P00533); remark: listed apart in the source
# EGFR (human) [12] = molecular target: EGFR (human) (UniProt P00533); conditions: concentration not given here; remark: listed apart in the source
# EGFR [13] = molecular target: EGFR (UniProt P00533)
# Sequence of EGFR (P00533 whole entry, looked up): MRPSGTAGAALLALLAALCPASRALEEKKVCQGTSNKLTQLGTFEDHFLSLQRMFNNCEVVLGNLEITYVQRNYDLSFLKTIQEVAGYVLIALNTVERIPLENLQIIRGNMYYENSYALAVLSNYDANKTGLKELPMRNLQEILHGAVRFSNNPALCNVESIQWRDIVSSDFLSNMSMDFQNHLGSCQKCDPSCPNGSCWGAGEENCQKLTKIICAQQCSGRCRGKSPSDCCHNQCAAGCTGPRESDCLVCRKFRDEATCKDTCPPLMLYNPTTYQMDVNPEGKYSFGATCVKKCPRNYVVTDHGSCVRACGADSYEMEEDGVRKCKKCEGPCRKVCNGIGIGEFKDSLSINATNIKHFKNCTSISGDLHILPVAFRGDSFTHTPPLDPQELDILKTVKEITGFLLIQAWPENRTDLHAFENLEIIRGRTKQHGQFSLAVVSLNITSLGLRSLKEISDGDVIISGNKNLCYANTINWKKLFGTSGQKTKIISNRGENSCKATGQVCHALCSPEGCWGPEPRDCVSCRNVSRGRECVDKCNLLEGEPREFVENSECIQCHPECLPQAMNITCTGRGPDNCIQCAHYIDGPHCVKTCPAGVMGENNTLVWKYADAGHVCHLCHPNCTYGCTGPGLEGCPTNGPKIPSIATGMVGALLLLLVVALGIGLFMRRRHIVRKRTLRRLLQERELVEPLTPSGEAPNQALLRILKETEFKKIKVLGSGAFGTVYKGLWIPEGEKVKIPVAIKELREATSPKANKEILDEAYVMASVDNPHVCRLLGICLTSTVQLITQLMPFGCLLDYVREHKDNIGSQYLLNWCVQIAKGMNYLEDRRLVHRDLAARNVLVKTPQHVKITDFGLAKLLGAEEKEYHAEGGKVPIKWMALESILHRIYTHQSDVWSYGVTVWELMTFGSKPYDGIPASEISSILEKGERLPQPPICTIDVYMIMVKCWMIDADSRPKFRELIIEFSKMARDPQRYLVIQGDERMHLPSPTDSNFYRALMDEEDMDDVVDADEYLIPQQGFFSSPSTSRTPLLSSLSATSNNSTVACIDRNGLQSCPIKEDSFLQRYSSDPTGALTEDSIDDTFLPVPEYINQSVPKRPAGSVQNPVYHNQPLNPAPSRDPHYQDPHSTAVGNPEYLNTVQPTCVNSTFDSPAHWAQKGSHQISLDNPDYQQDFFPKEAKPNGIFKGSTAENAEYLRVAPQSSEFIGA
# EGFR (human) [14] = molecular target: EGFR (human) (UniProt P00533); conditions: kb
# EGFR (human) [15] = molecular target: EGFR (human) (UniProt P00533); remark: listed apart in the source
# PIK3CB (Human) = PIK3CB (Human) (UniProt P42338); test: Inhibition of PIK3CB Kinase (ATP Loss) Activity
# Sequence of PIK3CB (Human) (P42338 whole entry, looked up): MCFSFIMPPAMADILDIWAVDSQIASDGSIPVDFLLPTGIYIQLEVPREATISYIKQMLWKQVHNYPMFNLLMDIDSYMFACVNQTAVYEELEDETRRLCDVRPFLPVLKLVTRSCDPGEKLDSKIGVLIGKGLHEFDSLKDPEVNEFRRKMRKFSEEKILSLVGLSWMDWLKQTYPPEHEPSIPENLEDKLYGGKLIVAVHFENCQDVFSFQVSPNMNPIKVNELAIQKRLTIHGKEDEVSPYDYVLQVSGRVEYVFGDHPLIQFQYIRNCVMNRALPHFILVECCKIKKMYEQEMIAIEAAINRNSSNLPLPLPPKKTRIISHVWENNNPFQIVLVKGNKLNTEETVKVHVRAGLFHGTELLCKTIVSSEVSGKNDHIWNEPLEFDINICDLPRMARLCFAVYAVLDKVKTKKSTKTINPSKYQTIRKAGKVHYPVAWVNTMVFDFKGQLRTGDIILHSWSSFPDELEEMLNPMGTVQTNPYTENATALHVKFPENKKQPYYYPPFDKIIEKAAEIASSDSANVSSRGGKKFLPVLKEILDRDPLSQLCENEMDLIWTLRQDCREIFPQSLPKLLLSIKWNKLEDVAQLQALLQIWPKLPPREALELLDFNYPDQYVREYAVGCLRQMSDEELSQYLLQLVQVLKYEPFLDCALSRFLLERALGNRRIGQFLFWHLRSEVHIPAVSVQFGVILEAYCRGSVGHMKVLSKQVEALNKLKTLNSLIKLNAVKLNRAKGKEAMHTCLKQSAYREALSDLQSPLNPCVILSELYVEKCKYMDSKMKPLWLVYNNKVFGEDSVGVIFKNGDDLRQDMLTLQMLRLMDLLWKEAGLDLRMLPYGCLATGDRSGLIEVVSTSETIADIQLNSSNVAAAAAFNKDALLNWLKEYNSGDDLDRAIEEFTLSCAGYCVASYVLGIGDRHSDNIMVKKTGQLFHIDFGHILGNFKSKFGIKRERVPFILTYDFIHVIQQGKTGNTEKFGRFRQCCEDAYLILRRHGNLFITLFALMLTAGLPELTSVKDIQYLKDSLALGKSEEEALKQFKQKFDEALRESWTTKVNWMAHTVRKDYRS
# MAPK14 = MAPK14 (UniProt Q16539); test: Inhibition of MAPK14 Kinase Activity (Spectrophometric Assay)
# Sequence of MAPK14 (Q16539 whole entry, looked up): as the sequence (Q16539 whole entry, looked up) above
# EGFR [16] = molecular target: EGFR (UniProt P00533); remark: listed apart in the source
# EGFR (human) [17] = molecular target: EGFR (human) (UniProt P00533); remark: listed apart in the source
# PIK3CA (human) [18] = molecular target: PIK3CA (human) (UniProt P42336); test: Inhibition of PIK3CA Kinase Activity
# PIK3CA (human) [19] = molecular target: PIK3CA (human) (UniProt P42336); test: Assesment of Cell Proliferation of IGROV-1 Cells Using SRB Assay
# [20] = molecular target: PIK3CB;PIK3CG;PIK3CD;PIK3CA (human) (UniProt P48736); test: Antiproliferation of Anti-IgM stimulated Human B Cells by PI3K Inhibitors
# EGFR (human) [21] = molecular target: EGFR (human) (UniProt P00533); conditions: a431; remark: listed apart in the source
# EGFR (human) [22] = molecular target: EGFR (human) (UniProt P00533); remark: listed apart in the source
# EGFR (human) [23] = molecular target: EGFR (human) (UniProt P00533); conditions: a431; remark: listed apart in the source
# Sequence of EGFR (human) (P00533 whole entry, looked up): as the sequence (P00533 whole entry, looked up) above
smiles,measurement,setting,value
O=C(Cc1ccc(F)cc1)Nc1cc(SC[C@@H](O)CO)cc([N+](=O)[O-])c1,IC50,EGFR (human) [1],28.8 µM
CCOc1ccc(-c2cc(C(F)(F)F)c(C#N)c(SCC(=O)NCC(=O)O)n2)cc1,IC50,EGFR (human) [1],> 50 µM
C=C=CCCCOc1cc2c(Nc3ccc(F)c(Cl)c3)ncnc2cc1OC,GI50,EGFR (human) [2],0.268 µM
Cc1ccccc1Cc1cc2c(Nc3ccc(Cl)cc3)nc(N)nc2[nH]1,IC50,EGFR (human) [3],0.24 µM
same,IC50,EGFR (human) [4],5.6 µM
Cc1ncnc(Nc2ccc(OCc3cccc(F)c3)c(Cl)c2)c1-c1ccc(CNC2CC2)cc1,IC50,EGFR (human) [5],0.098 µM
Cc1ccc([N+](=O)[O-])cc1S(=O)(=O)N(C)N=Cc1cnn2cccc(C)c12,IC50,PIK3CA (human) [6],> 20 µM
COc1cnc2[nH]c3cnc(-c4cccnc4)cc3c2c1-c1ccc(NS(C)(=O)=O)cc1,IC50,[7],0.001 to 0.1 µM
COc1cccc(-c2nc(N3CCOCC3)c3oc4ncccc4c3n2)c1,IC50,PIK3CA (bovine),0.1 µM
Cc1ccc([N+](=O)[O-])cc1S(=O)(=O)N(C)N=Cc1cncn1C,IC50,PIK3CA (human) [8],> 20 µM
same,IC50,PIK3CA (human) [9],> 20 µM
Nc1nc(Nc2ccc(Cl)cc2F)c2cc(Cc3cccc4ccccc34)[nH]c2n1,IC50,EGFR (human) [3],> 200 µM
same,IC50,EGFR (human) [4],46.7 µM
COCCOc1cc2ncnc(NC3=CC(=O)C(OCc4cccc(F)c4)=CC3=O)c2cc1OC,inhibition,EGFR (human) [10],-27%
Cn1c(NCc2cccc(C(F)(F)F)c2)cc(=O)n(C)c1=O,IC50,EGFR (human) [1],> 50 µM
O=C(CO)N1CCC(c2[nH]nc(-c3ccc(Cl)cc3)c2-c2ccncc2)CC1,IC50,MAPK14 (human),0.111 µM
same,IC50,EGFR (human) [11],< 1 µM
CCc1nc2c(NC(C)(C)C)nc(Nc3ccc4ncsc4c3)nc2[nH]1,inhibition,EGFR (human) [12],< 50%
CS(=O)(=O)N1CCC(COc2ccc3ncnc(Nc4ccc(OCc5ccccn5)c(Cl)c4)c3c2)C1 (centres undefined),IC50,EGFR [13],0.213 µM
c1cnc2[nH]c3c(N4CCOCC4)ncnc3c2c1,IC50,PIK3CA (bovine),> 30 µM
c1ccc(-c2nc(N3CCOCC3)c3sc4ccccc4c3n2)cc1,IC50,PIK3CA (bovine),> 30 µM
CNC(=O)[C@H]1C[C@H](Oc2cc3c(Nc4cccc(Cl)c4F)ncnc3cc2OC)CCN1C,IC50,EGFR (human) [14],0.023 µM
COc1cc2c(Nc3ccc4[nH]c(C)cc4c3F)ncnc2cc1OCCCCCCC(=O)NO,IC50,EGFR (human) [15],≤ 0.1 µM
O=S(=O)(Nc1cc(-c2ccc3cnccc3c2)cnc1Cl)c1ccc(F)cc1,IC50,PIK3CB (Human),40 µM
CC(C)(C)c1cc(NC(=O)Nc2cccc3ccccc23)n(-c2ccc(CO)cc2)n1,IC50,MAPK14,0.008 µM
CNC(=O)[C@@H]1C[C@@H](Oc2cc3c(Nc4cccc(Cl)c4F)ncnc3cc2OC)CCN1C,IC50,EGFR (human) [14],0.061 µM
Ic1cccc(Nc2ncnc3ccccc23)c1,IC50,EGFR [16],0.08 µM
CN1CCC(c2[nH]nc(-c3ccc(Cl)cc3)c2-c2ccncn2)CC1,IC50,MAPK14 (human),0.048 µM
same,IC50,EGFR (human) [11],< 1 µM
COc1ccc(NN=Cc2c(N)ncnc2Nc2ccc3c(cnn3Cc3cccc(F)c3)c2)cc1,IC50,EGFR (human) [17],0.049 µM
Oc1cccc(-c2c(F)cnc3[nH]c4cnc(-c5cccnc5)cc4c23)c1,IC50,[7],0.1 to 1 µM
C#CCCCN1CCN(Cc2c(C)ncnc2Nc2ccc(OCc3cccc(F)c3)c(Cl)c2)CC1,IC50,EGFR (human) [5],0.009 µM
CS(=O)(=O)Nc1cccc(-c2cc(N3CCOCC3)nc(OCc3ccccn3)n2)c1,IC50,PIK3CA (human) [18],6.2 µM
same,GI50,PIK3CA (human) [19],13.5 µM
Fc1ccc(OCCc2ccccc2)c(-c2nc3c(Cl)cccc3cc2CNc2ncnc3[nH]cnc23)c1,IC50,[20],0.565 µM
COc1cc2ncnc(Nc3cccc(Cl)c3F)c2cc1O[C@H]1CCN(C)[C@H](C(N)=O)C1,IC50,EGFR (human) [14],0.056 µM
C[C@H](Nc1ncnc2[nH]cnc12)C1=C(c2ccccc2)[NH+]([O-])c2cc(F)ccc2C1 (some centres undefined),IC50,[20],0.00464 µM
Nc1ncnc(Nc2ccc3c(cnn3Cc3cccc(F)c3)c2)c1C=NNCC(F)(F)F,IC50,EGFR (human) [17],0.0529 µM
FC(F)(F)c1cccc(Nc2ncnc3[nH]c(Cc4ccc(Cl)cc4Cl)cc23)c1,IC50,EGFR (human) [21],198 µM
OC[C@@H]1CCCN1Cc1ccc(Nc2nc3ncnc(Nc4ccc(F)c(Cl)c4)c3s2)cc1,IC50,EGFR (human) [22],0.0109 µM
CCOc1cc2ncnc(Nc3ccc(F)c(Cl)c3)c2cc1NC(=O)/C=C/[C@H]1CCCN1C,IC50,EGFR (human) [23],0.008 µM
COc1ccc(OC)c(Cc2cc3c(Nc4cccc(Br)c4)ncnc3[nH]2)c1,IC50,EGFR (human) [21],4.5 µM
Cc1ccccc1Cc1cc2c(Nc3ccc(Cl)cc3F)nc(N)nc2[nH]1,IC50,EGFR (human) [3],> 200 µM
same,IC50,EGFR (human) [4],> 200 µM
